According to a melting point compilation (Tetko et al.; mined from patent text by program, amines drawn as free bases though some values may be those of a salt):

SMILES	melting point [°C]
Cc1cccc(Cl)c1CNC(=O)C(C)Br (centres undefined)	168 to 169
O=S(=O)(NCc1ccccc1)c1cc(F)c2cccnc2c1O	186
Oc1ccc(C2=C(c3ccc(OC4CCCCO4)cc3)CCCc3cc(OC4CCCCO4)ccc32)cc1 (centres undefined)	182 to 183
NS(=O)(=O)c1cccc(-c2cc(-c3nc(-c4ccc(C(F)(F)F)cc4F)cc(C(F)(F)F)n3)ccn2)c1	210
COc1cc2cnnc(N3CCC4(CC3)OCCCO4)c2cc1OC	194 to 196
CNC(=O)Nc1cc(CNc2ncccc2C(=O)OC)ccn1	145 to 146
COc1ccc(Cl)cc1C(=O)N(CCCC(=O)O)C(c1ccccc1)c1ccccc1	176 to 178
CC(C)OC(C)c1nnc(N)s1 (centres undefined)	129 to 135
Cc1cc(C)c([N+](=O)[O-])cc1-n1c(C)cc(C)c(C#N)c1=O	262 to 263
O=[N+]([O-])c1ccc(OCCN2CCC(Cc3ccccc3)CC2)cc1O	136 to 137
CCCCCCCCCCCCCCOc1ccc(C(=O)Nc2cccc(CBr)c2)cc1	116 to 118
COc1ccc(C2=NN(C)C(=O)CC2)cc1	133 to 135
NC1C(O)C(CO)OC1n1ccc(=O)[nH]c1=O (centres undefined)	197 to 199
Cc1ccc(C)n1-c1cccc(C(=O)O)c1	148 to 150
CC1(C)[C@@H](C=C(F)F)[C@@H]1C(=O)OCc1c(F)c(F)c(F)c(-c2ccccc2)c1F (relative stereo)	69 to 72
C=CCOc1ccccc1S(=O)(=O)NC(=O)n1nc(SCCF)n(C2CC2)c1=O	15
CCOC(=O)C(C)=NNc1ccc2[nH]c(=O)[nH]c2c1	220
COc1cccc([C@H]2O[C@H](CC(=O)Nc3ccsc3C(=O)O)C(=O)N(CC(C)(C)CO)c3ccc(Cl)cc32)c1OC	154 to 155
Cc1onc(-c2ccccc2)c1-c1ccc(S(C)(=O)=O)cc1	54 to 56
N=C(N)c1ccc(N2CCN(c3ccc(CCC(=O)O)cc3)S2(=O)=O)cc1	> 275

SMILES	melting point [°C]
O=C1CCC(=O)C1C(=O)CCc1ccc2c(c1)OCO2	93 to 94
CCCCCCCCCCc1cnc(-c2ccc3c(c2)C(=O)C(CCCCCCCC)C3)nc1 (centres undefined)	83
CCCC(=O)c1cnc2c(OCCCN3CCCCC3)cccc2c1Nc1ccccc1C	76 to 78
Clc1ccc2snc(-c3ccc(C4=NCCN4)cc3)c2c1	195
COC(=O)c1ccc2oc3c(c(=O)c2c1)CCC3=Cc1ccccc1C	203 to 205
Cc1cccc2oc(Nc3ccc(C(=O)O)cc3)nc12	327 to 329
COc1ccc2occ(N)c(=O)c2c1	98 to 100
O=Cc1cc(-c2ccc(Cl)cc2F)ccc1OC(F)(F)F	41 to 42
Nc1nc(=O)c2ncn(C3OC4COP(=O)(O)OC4C3O)c2[nH]1 (centres undefined)	91.6 to 93.7
CC(C)C[C@H](NC(=O)OC(C)(C)C)[C@@H](O)c1ncnn1C	144 to 145
O=C1COc2ccc(C3=Nn4cnnc4SC3c3ccccc3Cl)cc2N1 (centres undefined)	234 to 235
O=c1[nH]c(-c2cccc(Oc3ccc4c(c3)S(=O)(=O)N=C3CCCN34)c2)no1	> 250
Cn1ncc2c1-c1c(SC(C)(C)C)sc(C(=O)O)c1CC2	277 to 278
COc1cc(NC(=O)CCCCCN2CCCN(C)CC2)c2nccc(C)c2c1	74 to 77
COCOc1nn(-c2ccccc2)cc1/C=C/c1nc(N2CCOCC2)sc1C	162 to 164
CN1C(=O)C2CC2(c2ccc([N+](=O)[O-])cc2)C1=O (centres undefined)	148 to 150
O=c1c2c(Cl)cc(Cl)cc2n(Cc2ccccc2)c(=O)n1Cc1cccc(I)c1	155 to 157
O=C1Cc2c(Cl)cccc2Sc2ccc(C(F)(F)F)cc21	105 to 108
CC(C)(C)c1ccc(S(=O)(=O)C(CCl)Sc2ccccc2)cc1 (centres undefined)	104 to 106
